Measurements as given in patent publication US20230085307A1, “PYRIDAZINONE COMPOUND AND HERBICIDE” (NISSAN CHEMICAL CORPORATION, priority 2019, published 2023).

Experiments:
late watergrass = assay: Test Example 1: herbicidal activity, application before weed generation under submerged conditions (Table 16, symbol A); type: in vivo, late watergrass (Echinochloa oryzicola); conditions: 320 g/ha applied herbicide
Outline: (§1)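 Alluvial soil was flooded to 4 cm depth, weed seeds were sown mixed and 2.5-leaf rice seedlings were transplanted. On sowing day, the compound's emulsion, diluted in water to a set dose, was applied to the water surface. Plants grew at 25–30 °C and were scored 0–5 after three weeks.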

Japanese bulrush = assay: Test Example 1: herbicidal activity, application before weed generation under submerged conditions (Table 16, symbol B); type: in vivo, Japanese bulrush (Schoenoplectus juncoides); conditions: 320 g/ha applied herbicide
Outline: as §1

oval-leafed pondweed = assay: Test Example 1: herbicidal activity, application before weed generation under submerged conditions (Table 16, symbol C); type: in vivo, oval-leafed pondweed (Monochoria vaginalis); conditions: 320 g/ha applied herbicide
Outline: as §1

barnyard grass [1] = assay: Test Example 3: herbicidal effect by foliage application, Wagner pot (Table 18, symbol H); type: in vivo, barnyard grass (Echinochloa crus-galli); conditions: 320 g/ha
Outline: (§2)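 Plants were sown in alluvial soil held under 0.1–0.5 cm standing water and grown 14 days in a greenhouse at 25–30 °C. An emulsifiable formulation, water-diluted to the set dose, was then sprayed onto the foliage, and effects were scored three weeks later using previously defined criteria.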

Chinese sprangletop = assay: Test Example 3: herbicidal effect by foliage application, Wagner pot (Table 18, symbol D); type: in vivo, chinese sprangletop (Leptochloa chinensis); conditions: 320 g/ha
Outline: as §2

rice flat sedge = assay: Test Example 3: herbicidal effect by foliage application, Wagner pot (Table 18, symbol E); type: in vivo, rice flat sedge (Cyperus iria); conditions: 320 g/ha
Outline: as §2

southern crabgrass [2] = assay: Test Example 4: herbicidal effect by soil treatment (Table 19, symbol F); type: in vivo, southern crabgrass (Digitaria ciliaris); conditions: amount of applied herbicide 320 g/ha
Outline: (§3)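 In this soil treatment, the formulated compound reached the seeds only through the soil: seeds were buried about 1.5 cm deep in sterilized diluvial soil, then the diluted emulsion was sprayed over the surface. After three weeks at 25° C. to 30° C. in a greenhouse, effects were graded on criteria from an earlier test.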

green foxtail [3] = assay: Test Example 4: herbicidal effect by soil treatment (Table 19, symbol G); type: in vivo, green foxtail (Setaria viridis); conditions: amount of applied herbicide 320 g/ha
Outline: as §3

barnyard grass [4] = assay: Test Example 4: herbicidal effect by soil treatment (Table 19, symbol H); type: in vivo, barnyard grass (Echinochloa crus-galli); conditions: amount of applied herbicide 320 g/ha
Outline: as §3

wild oat [5] = assay: Test Example 4: herbicidal effect by soil treatment (Table 19, symbol I); type: in vivo, wild oat (Avena fatua); conditions: amount of applied herbicide 320 g/ha
Outline: as §3

blackgrass [6] = assay: Test Example 4: herbicidal effect by soil treatment (Table 19, symbol J); type: in vivo, blackgrass (Alopecurus myosuroides); conditions: amount of applied herbicide 320 g/ha
Outline: as §3

Italian ryegrass [7] = assay: Test Example 4: herbicidal effect by soil treatment (Table 19, symbol K); type: in vivo, Italian ryegrass (Lolium multiflorum); conditions: amount of applied herbicide 320 g/ha
Outline: as §3

windgrass [8] = assay: Test Example 4: herbicidal effect by soil treatment (Table 19, symbol L); type: in vivo, windgrass (Apera spica-venti); conditions: amount of applied herbicide 320 g/ha
Outline: as §3

velvetleaf [9] = assay: Test Example 4: herbicidal effect by soil treatment (Table 19, symbol M); type: in vivo, velvetleaf (Abutilon theophrasti); conditions: amount of applied herbicide 320 g/ha
Outline: as §3

redroot pigweed [10] = assay: Test Example 4: herbicidal effect by soil treatment (Table 19, symbol N); type: in vivo, redroot pigweed (Amaranthus retroflexus); conditions: amount of applied herbicide 320 g/ha
Outline: as §3

lambsquarters [11] = assay: Test Example 4: herbicidal effect by soil treatment (Table 19, symbol O); type: in vivo, lambsquarters (Chenopodium album); conditions: amount of applied herbicide 320 g/ha
Outline: as §3

chickweed [12] = assay: Test Example 4: herbicidal effect by soil treatment (Table 19, symbol P); type: in vivo, common chickweed (Stellaria media); conditions: amount of applied herbicide 320 g/ha
Outline: as §3

false cleavers [13] = assay: Test Example 4: herbicidal effect by soil treatment (Table 19, symbol Q); type: in vivo, false cleavers (Galium spurium); conditions: amount of applied herbicide 320 g/ha
Outline: as §3

persian speedwell [14] = assay: Test Example 4: herbicidal effect by soil treatment (Table 19, symbol R); type: in vivo, Persian speedwell (Veronica persica); conditions: amount of applied herbicide 320 g/ha
Outline: as §3

southern crabgrass [15] = assay: Test Example 5: herbicidal effect by foliage application, plastic box (Table 20, symbol F); type: in vivo, southern crabgrass (Digitaria ciliaris); conditions: foliage application, 320 g/ha, three weeks after application
Outline: (§4)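 Plants were sown into sterilized diluvial soil under about 1.5 cm cover and kept in a greenhouse at 25° C. to 30° C. Fourteen days on, foliage received an even spray of the diluted emulsion. Herbicidal or crop effect was judged three weeks afterwards.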

green foxtail [16] = assay: Test Example 5: herbicidal effect by foliage application, plastic box (Table 20, symbol G); type: in vivo, green foxtail (Setaria viridis); conditions: foliage application, 320 g/ha, three weeks after application
Outline: as §4

barnyard grass [17] = assay: Test Example 5: herbicidal effect by foliage application, plastic box (Table 20, symbol H); type: in vivo, barnyard grass (Echinochloa crus-galli); conditions: foliage application, 320 g/ha, three weeks after application
Outline: as §4

wild oat [18] = assay: Test Example 5: herbicidal effect by foliage application, plastic box (Table 20, symbol I); type: in vivo, wild oat (Avena fatua); conditions: foliage application, 320 g/ha, three weeks after application
Outline: as §4

blackgrass [19] = assay: Test Example 5: herbicidal effect by foliage application, plastic box (Table 20, symbol J); type: in vivo, blackgrass (Alopecurus myosuroides); conditions: foliage application, 320 g/ha, three weeks after application
Outline: as §4

Italian ryegrass [20] = assay: Test Example 5: herbicidal effect by foliage application, plastic box (Table 20, symbol K); type: in vivo, Italian ryegrass (Lolium multiflorum); conditions: foliage application, 320 g/ha, three weeks after application
Outline: as §4

windgrass [21] = assay: Test Example 5: herbicidal effect by foliage application, plastic box (Table 20, symbol L); type: in vivo, windgrass (Apera spica-venti); conditions: foliage application, 320 g/ha, three weeks after application
Outline: as §4

velvetleaf [22] = assay: Test Example 5: herbicidal effect by foliage application, plastic box (Table 20, symbol M); type: in vivo, velvetleaf (Abutilon theophrasti); conditions: foliage application, 320 g/ha, three weeks after application
Outline: as §4

redroot pigweed [23] = assay: Test Example 5: herbicidal effect by foliage application, plastic box (Table 20, symbol N); type: in vivo, redroot pigweed (Amaranthus retroflexus); conditions: foliage application, 320 g/ha, three weeks after application
Outline: as §4

lambsquarters [24] = assay: Test Example 5: herbicidal effect by foliage application, plastic box (Table 20, symbol O); type: in vivo, lambsquarters (Chenopodium album); conditions: foliage application, 320 g/ha, three weeks after application
Outline: as §4

chickweed [25] = assay: Test Example 5: herbicidal effect by foliage application, plastic box (Table 20, symbol P); type: in vivo, common chickweed (Stellaria media); conditions: foliage application, 320 g/ha, three weeks after application
Outline: as §4

false cleavers [26] = assay: Test Example 5: herbicidal effect by foliage application, plastic box (Table 20, symbol Q); type: in vivo, false cleavers (Galium spurium); conditions: foliage application, 320 g/ha, three weeks after application
Outline: as §4

persian speedwell [27] = assay: Test Example 5: herbicidal effect by foliage application, plastic box (Table 20, symbol R); type: in vivo, Persian speedwell (Veronica persica); conditions: foliage application, 320 g/ha, three weeks after application
Outline: as §4

SMILES	Herbicidal effect on A: late watergrass (grade 0-5) (late watergrass)	Herbicidal effect on B: Japanese bulrush (grade 0-5) (Japanese bulrush)	Herbicidal effect on C: oval-leafed pondweed (grade 0-5) (oval-leafed pondweed)	herbicidal effect on H (barnyard grass), rating 0-5 (barnyard grass [1])	herbicidal effect on D (Chinese sprangletop), rating 0-5 (Chinese sprangletop)	herbicidal effect on E (rice flat sedge), rating 0-5 (rice flat sedge)	herbicidal effect rating, F: southern crabgrass (southern crabgrass [2])	herbicidal effect rating, G: green foxtail (green foxtail [3])	herbicidal effect rating, H: barnyard grass (barnyard grass [4])	herbicidal effect rating, I: wild oat (wild oat [5])	herbicidal effect rating, J: blackgrass (blackgrass [6])	herbicidal effect rating, K: Italian ryegrass (Italian ryegrass [7])	herbicidal effect rating, L: windgrass (windgrass [8])	herbicidal effect rating, M: velvetleaf (velvetleaf [9])	herbicidal effect rating, N: redroot pigweed (redroot pigweed [10])	herbicidal effect rating, O: lambsquarters (lambsquarters [11])	herbicidal effect rating, P: chickweed (chickweed [12])	herbicidal effect rating, Q: false cleavers (false cleavers [13])	herbicidal effect rating, R: persian speedwell (persian speedwell [14])	herbicidal effect grade, F: southern crabgrass (southern crabgrass [15])	also measured
Cc1nn(C)c(=O)c(-c2c(-c3ccccc3OC(C)C)sc3ccccc23)c1O [1-017]	3 (Herbicidal rate of 40% or more and less than 70%)	3 (Herbicidal rate of 40% or more and less than 70%)	3 (Herbicidal rate of 40% or more and less than 70%)	5 (Herbicidal rate of 90% or more (almost completely withered))	0 (Herbicidal rate of 5% or less (almost no effect))	3 (Herbicidal rate of 40% or more and less than 70%)	0 (Herbicidal rate of 5% or less (almost no effect))	0 (Herbicidal rate of 5% or less (almost no effect))	0 (Herbicidal rate of 5% or less (almost no effect))	1 (Herbicidal rate of 5% or more and less than 20%)	2 (Herbicidal rate of 20% or more and less than 40%)	0 (Herbicidal rate of 5% or less (almost no effect))	0 (Herbicidal rate of 5% or less (almost no effect))	0 (Herbicidal rate of 5% or less (almost no effect))	0 (Herbicidal rate of 5% or less (almost no effect))	0 (Herbicidal rate of 5% or less (almost no effect))	4 (Herbicidal rate of 70% or more and less than 90%)	0 (Herbicidal rate of 5% or less (almost no effect))	4 (Herbicidal rate of 70% or more and less than 90%)	3 (Herbicidal rate of 40% or more and less than 70%)	herbicidal effect grade, G: green foxtail (green foxtail [16]): 4 (Herbicidal rate of 70% or more and less than 90%); herbicidal effect grade, H: barnyard grass (barnyard grass [17]): 4 (Herbicidal rate of 70% or more and less than 90%); herbicidal effect grade, I: wild oat (wild oat [18]): 4 (Herbicidal rate of 70% or more and less than 90%); herbicidal effect grade, J: blackgrass (blackgrass [19]): 4 (Herbicidal rate of 70% or more and less than 90%); herbicidal effect grade, K: Italian ryegrass (Italian ryegrass [20]): 2 (Herbicidal rate of 20% or more and less than 40%); herbicidal effect grade, L: windgrass (windgrass [21]): 4 (Herbicidal rate of 70% or more and less than 90%); herbicidal effect grade, M: velvetleaf (velvetleaf [22]): 4 (Herbicidal rate of 70% or more and less than 90%); herbicidal effect grade, N: redroot pigweed (redroot pigweed [23]): 4 (Herbicidal rate of 70% or more and less than 90%); herbicidal effect grade, O: lambsquarters (lambsquarters [24]): 3 (Herbicidal rate of 40% or more and less than 70%); herbicidal effect grade, P: chickweed (chickweed [25]): 5 (Herbicidal rate of 90% or more (almost completely withered)); herbicidal effect grade, Q: false cleavers (false cleavers [26]): 5 (Herbicidal rate of 90% or more (almost completely withered)); herbicidal effect grade, R: persian speedwell (persian speedwell [27]): 5 (Herbicidal rate of 90% or more (almost completely withered))
CCCCCOc1ccc(-c2sc3ccccc3c2-c2c(OC(=O)CCC)c(C)nn(C)c2=O)cc1 [1-027]	0 (Herbicidal rate of 5% or less (almost no effect))	2 (Herbicidal rate of 20% or more and less than 40%)	0 (Herbicidal rate of 5% or less (almost no effect))	3 (Herbicidal rate of 40% or more and less than 70%)	2 (Herbicidal rate of 20% or more and less than 40%)	1 (Herbicidal rate of 5% or more and less than 20%)	0 (Herbicidal rate of 5% or less (almost no effect))	0 (Herbicidal rate of 5% or less (almost no effect))	0 (Herbicidal rate of 5% or less (almost no effect))	0 (Herbicidal rate of 5% or less (almost no effect))	0 (Herbicidal rate of 5% or less (almost no effect))	0 (Herbicidal rate of 5% or less (almost no effect))	0 (Herbicidal rate of 5% or less (almost no effect))	0 (Herbicidal rate of 5% or less (almost no effect))	0 (Herbicidal rate of 5% or less (almost no effect))	0 (Herbicidal rate of 5% or less (almost no effect))	2 (Herbicidal rate of 20% or more and less than 40%)	3 (Herbicidal rate of 40% or more and less than 70%)	2 (Herbicidal rate of 20% or more and less than 40%)	0 (Herbicidal rate of 5% or less (almost no effect))	herbicidal effect grade, G: green foxtail (green foxtail [16]): 0 (Herbicidal rate of 5% or less (almost no effect)); herbicidal effect grade, H: barnyard grass (barnyard grass [17]): 3 (Herbicidal rate of 40% or more and less than 70%); herbicidal effect grade, I: wild oat (wild oat [18]): 0 (Herbicidal rate of 5% or less (almost no effect)); herbicidal effect grade, J: blackgrass (blackgrass [19]): 0 (Herbicidal rate of 5% or less (almost no effect)); herbicidal effect grade, K: Italian ryegrass (Italian ryegrass [20]): 0 (Herbicidal rate of 5% or less (almost no effect)); herbicidal effect grade, L: windgrass (windgrass [21]): 0 (Herbicidal rate of 5% or less (almost no effect)); herbicidal effect grade, M: velvetleaf (velvetleaf [22]): 3 (Herbicidal rate of 40% or more and less than 70%); herbicidal effect grade, N: redroot pigweed (redroot pigweed [23]): 5 (Herbicidal rate of 90% or more (almost completely withered)); herbicidal effect grade, O: lambsquarters (lambsquarters [24]): 3 (Herbicidal rate of 40% or more and less than 70%); herbicidal effect grade, P: chickweed (chickweed [25]): 5 (Herbicidal rate of 90% or more (almost completely withered)); herbicidal effect grade, Q: false cleavers (false cleavers [26]): 3 (Herbicidal rate of 40% or more and less than 70%); herbicidal effect grade, R: persian speedwell (persian speedwell [27]): 4 (Herbicidal rate of 70% or more and less than 90%)
